Data published in PubChem BioAssay AID248 (DTP/NCI, 2004).
“And” between values parts separate entries of the source, which are not always exact repeats. Equal values may be shown once. Inconclusive results and toxic doses are left out. Rule as the data show it: active = T/C of 150% or more; inactive = T/C below 125%.

System: L1210 leukemia ip in BDF1 mice, survival T/C
Experiment: NCI In Vivo Anticancer Drug Screen. Data for tumor model L1210 Leukemia (intraperitoneal) in B6D2F1 (BDF1) mice
Conditions: endpoint: mean survival time, higher = longer survival
Outline: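 Read-out is survival time, reported as the treated-group measurement over the vehicle-control measurement.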

[1] = dose: 200.0 mg/kg/injection, schedule: Q04DX002 (ip), vehicle: Klucel (hydroxypropylcellulose) (HPC)
[2] = dose: 400.0 mg/kg/injection, schedule: Q04DX002 (ip), vehicle: Klucel (hydroxypropylcellulose) (HPC)
[3] = dose: 100.0 mg/kg/injection, schedule: Q01DX001 (ip), vehicle: Klucel (hydroxypropylcellulose) (HPC)
[4] = dose: 200.0 mg/kg/injection, schedule: Q01DX001 (ip), vehicle: Klucel (hydroxypropylcellulose) (HPC)
[5] = dose: 400.0 mg/kg/injection, schedule: Q01DX001 (ip), vehicle: Klucel (hydroxypropylcellulose) (HPC)

Measured: T/C

COC12C(COC(=O)NCCO)C3=C(C(=O)C(C)=C(N)C3=O)N1CC1NC12 (centres undefined)
inactive: dose: 5.0 mg/kg/injection, schedule: Q01DX009 (ip), vehicle: saline 121 % of control | dose: 10.0 mg/kg/injection, schedule: Q01DX009 (ip), vehicle: saline 122 % of control | dose: 12.0 mg/kg/injection, schedule: Q04DX003 (ip), vehicle: Klucel (hydroxypropylcellulose) (HPC) 94 % of control | dose: 19.0 mg/kg/injection, schedule: Q04DX003 (ip), vehicle: Klucel (hydroxypropylcellulose) (HPC) 111 % of control | dose: 28.0 mg/kg/injection, schedule: Q04DX003 (ip), vehicle: Klucel (hydroxypropylcellulose) (HPC) 111 % of control | dose: 40.0 mg/kg/injection, schedule: Q01DX009 (ip), vehicle: saline 102 % of control | dose: 43.0 mg/kg/injection, schedule: Q01DX001 (ip), vehicle: Klucel (hydroxypropylcellulose) (HPC) 121 % of control | dose: 43.0 mg/kg/injection, schedule: Q01DX009 (ip), vehicle: Klucel (hydroxypropylcellulose) (HPC) 109 % of control | dose: 43.0 mg/kg/injection, schedule: Q04DX003 (ip), vehicle: Klucel (hydroxypropylcellulose) (HPC) 115 % of control | dose: 100.0 mg/kg/injection, schedule: Q01DX003 (ip), vehicle: Klucel (hydroxypropylcellulose) (HPC) 103 % of control | dose: 150.0 mg/kg/injection, schedule: Q01DX001 (ip), vehicle: Klucel (hydroxypropylcellulose) (HPC) 102 % of control | dose: 150.0 mg/kg/injection, schedule: Q01DX003 (ip), vehicle: Klucel (hydroxypropylcellulose) (HPC) 94 % of control | [1] 91 % of control | dose: 225.0 mg/kg/injection, schedule: Q01DX001 (ip), vehicle: Klucel (hydroxypropylcellulose) (HPC) 91 % of control | dose: 225.0 mg/kg/injection, schedule: Q01DX003 (ip), vehicle: Klucel (hydroxypropylcellulose) (HPC) 95 % of control | [2] 91 % of control

O=C1C=CC2C=CC1C(C(=O)O)C2C(=O)O (centres undefined) (tested in a mixture with another compound)
inactive: dose: 100.0 mg/kg/injection, schedule: Q01DX001 (ip), vehicle: saline with Tween-80 95 % of control | dose: 200.0 mg/kg/injection, schedule: Q01DX001 (ip), vehicle: saline with Tween-80 90 % of control | dose: 400.0 mg/kg/injection, schedule: Q01DX001 (ip), vehicle: saline with Tween-80 92 % of control

CCCCNC(C)(C)CSSSCC(C)(C)NCCCC
inactive: dose: 6.25 mg/kg/injection, schedule: Q01DX009 (ip), vehicle: water 102 % of control | dose: 12.5 mg/kg/injection, schedule: Q01DX009 (ip), vehicle: water 92 % of control | dose: 12.5 mg/kg/injection, schedule: Q04DX003 (ip), vehicle: other 96 % of control | dose: 25.0 mg/kg/injection, schedule: Q01DX009 (ip), vehicle: water 92 % of control | dose: 25.0 mg/kg/injection, schedule: Q04DX003 (ip), vehicle: other 94 % of control | dose: 50.0 mg/kg/injection, schedule: Q01DX009 (ip), vehicle: other 106 % of control | dose: 50.0 mg/kg/injection, schedule: Q01DX009 (ip), vehicle: water 103 % of control | dose: 50.0 mg/kg/injection, schedule: Q04DX003 (ip), vehicle: other 94 % of control | dose: 100.0 mg/kg/injection, schedule: Q01DX009 (ip), vehicle: other 95 % of control

CN1CCCCC1C[CH2][Sn]([c]1ccccc1)([c]1ccccc1)[c]1ccccc1 (centres undefined)
inactive: dose: 3.12 mg/kg/injection, schedule: Q01DX009 (ip), vehicle: Klucel (hydroxypropylcellulose) (HPC) 90 % of control | dose: 6.25 mg/kg/injection, schedule: Q01DX009 (ip), vehicle: Klucel (hydroxypropylcellulose) (HPC) 90 % of control | dose: 12.5 mg/kg/injection, schedule: Q01DX009 (ip), vehicle: Klucel (hydroxypropylcellulose) (HPC) 92 % of control | dose: 12.5 mg/kg/injection, schedule: Q04DX002 (ip), vehicle: Klucel (hydroxypropylcellulose) (HPC) 93 % of control | dose: 25.0 mg/kg/injection, schedule: Q04DX002 (ip), vehicle: Klucel (hydroxypropylcellulose) (HPC) 96 % of control

O=C(Nc1cc([N+](=O)[O-])ccc1O)Nc1cccc(Cl)c1Cl
inactive: dose: 100.0 mg/kg/injection, schedule: Q01DX009 (ip), vehicle: Klucel (hydroxypropylcellulose) (HPC) 88 % of control | dose: 200.0 mg/kg/injection, schedule: Q01DX009 (ip), vehicle: Klucel (hydroxypropylcellulose) (HPC) 100 % of control | dose: 400.0 mg/kg/injection, schedule: Q01DX009 (ip), vehicle: Klucel (hydroxypropylcellulose) (HPC) 92 % of control

CC1(C)N=C(N)N=C(N)N1c1cccc(CCCCCc2ccccc2)c1
inactive: dose: 25.0 mg/kg/injection, schedule: Q01DX001 (ip), vehicle: saline 94 % of control

O=C(O)C1C2C=CC(C2)C1C(F)(F)C(F)(F)C(F)(F)F (centres undefined)
inactive: [3] 102 % of control | [4] 102 % of control | [5] 93 % of control

C=CC(OC(C)=O)OC(C)=O
inactive: dose: 2.8 mg/kg/injection, schedule: Q01DX Z (ip), vehicle: carboxymethylcellulose (CMC) 94 % of control | dose: 4.2 mg/kg/injection, schedule: Q01DX Z (ip), vehicle: carboxymethylcellulose (CMC) 95 % of control | dose: 6.2 mg/kg/injection, schedule: Q01DX Z (ip), vehicle: carboxymethylcellulose (CMC) 93 % of control | dose: 6.25 mg/kg/injection, schedule: Q01DX009 (ip), vehicle: saline with Tween-80 91 % of control | dose: 6.25 mg/kg/injection, schedule: Q01DX Z (ip), vehicle: carboxymethylcellulose (CMC) 89 % of control | dose: 9.4 mg/kg/injection, schedule: Q01DX Z (ip), vehicle: carboxymethylcellulose (CMC) 98 % of control and 111 % of control | dose: 12.5 mg/kg/injection, schedule: Q01DX009 (ip), vehicle: saline with Tween-80 104 % of control | dose: 12.5 mg/kg/injection, schedule: Q04DX003 (ip), vehicle: saline with Tween-80 103 % of control | dose: 25.0 mg/kg/injection, schedule: Q01DX009 (ip), vehicle: saline with Tween-80 110 % of control | dose: 25.0 mg/kg/injection, schedule: Q04DX003 (ip), vehicle: saline with Tween-80 111 % of control

c1cnc2ccc3c(c2c1)COCO3
inactive: dose: 100.0 mg/kg/injection, schedule: Q01DX001 (ip), vehicle: saline 93 % of control

[Cl][Pd][Cl].[NH-]C1CCCC1.[NH-]C1CCCC1
inactive: dose: 6.25 mg/kg/injection, schedule: Q04DX002 (ip), vehicle: saline 102 % of control | dose: 12.5 mg/kg/injection, schedule: Q04DX002 (ip), vehicle: saline 105 % of control | dose: 25.0 mg/kg/injection, schedule: Q04DX002 (ip), vehicle: saline 97 % of control

CC1CC=CCC1/C=N/NC(N)=O (centres undefined)
inactive: [3] 107 % of control | [4] 104 % of control | [5] 98 % of control

CS(=O)(=O)OC1CCCCC1Sc1ccc(Br)cc1 (centres undefined)
inactive: [3] 103 % of control | dose: 100.0 mg/kg/injection, schedule: Q04DX003 (ip), vehicle: Klucel (hydroxypropylcellulose) (HPC) 101 % of control | [4] 101 % of control | dose: 200.0 mg/kg/injection, schedule: Q04DX003 (ip), vehicle: Klucel (hydroxypropylcellulose) (HPC) 101 % of control | [5] 101 % of control | dose: 400.0 mg/kg/injection, schedule: Q04DX003 (ip), vehicle: Klucel (hydroxypropylcellulose) (HPC) 106 % of control

Cc1cc(S(N)(=O)=O)ccc1Cl
inactive: dose: 100.0 mg/kg/injection, schedule: Q04DX003 (ip), vehicle: saline with Tween-80 93 % of control | dose: 200.0 mg/kg/injection, schedule: Q04DX003 (ip), vehicle: saline with Tween-80 93 % of control | dose: 400.0 mg/kg/injection, schedule: Q04DX003 (ip), vehicle: saline with Tween-80 104 % of control

Cc1ccc(NC(=S)N(CCC#N)C2CCCCC2)cc1C
inactive: dose: 100.0 mg/kg/injection, schedule: Q04DX002 (ip), vehicle: Klucel (hydroxypropylcellulose) (HPC) 97 % of control | [1] 90 % of control | [2] 90 % of control
